Details: for log10 BCF / log10 biotransformation half-life (days): fish

With `CCCC(=O)C1=C(O)C(C)(C)C(O)=C(Cc2c(OC)cc(O)c(C(=O)CCC)c2O)C1=O` the melting point was 150 °C.

`CCCCCCCCC(Br)C(=O)O` (centres undefined) gave a melting point of 4 °C.

`Clc1ccc(Cl)c(-c2cccc(Cl)c2Cl)c1` gave a log10 Henry constant (atm·m³/mol) of -3.85, a log10 Koa of 8.36 and a log10 BCF of 4.84. For the same molecule, the log10 biotransformation half-life (days) was 2.33.

`CCC(CO)(CO)[N+](=O)[O-]` gave a melting point of 57.5 °C.

With `C=CC12CN(C)C3C4COC(CC41)[C@]1(C(=O)Nc4ccccc41)C32` (some centres undefined) the melting point was 178 °C.

Work on `CCOC(=O)CC(=O)OCC` yielded a boiling point of 200 °C, a log10 vapour pressure (mmHg) of -0.57 and a melting point of -50 °C. For the same molecule, the ready biodegradability was “readily biodegradable”.

For `O=c1[nH]c2ccccc2n1CCCN1CCC(n2c(=O)[nH]c3cc(Cl)ccc32)CC1`, the melting point was 242 °C.

In the case of `NCc1cccnc1`, the boiling point is reported as 226 °C and the melting point is reported as -21.1 °C.

`CCc1ccc([N+](=O)[O-])cc1` showed a boiling point of 246 °C and a melting point of -12.3 °C.

Work on `C=CC#CCC` yielded a boiling point of 85 °C.

`CCOC(=O)C(C(=O)OCC)C(C)C` gave a boiling point of 215 °C.

With `CN(C)c1ccc(C2(c3ccc(N(C)C)cc3)OC(=O)c3cc(N(C)C)ccc32)cc1` the ready biodegradability was “not readily biodegradable”.

For `COc1ccc(N)c(OC)c1`, the melting point was 33.5 °C.

`CC(C)NCc1ccccc1` gave a boiling point of 200 °C.

For `O=[N+]([O-])c1ccc(I)cc1`, the boiling point was 288 °C and the melting point was 175 °C.

Work on `CCC(CC)(CO)CO` yielded a boiling point of 240 °C and a melting point of 61.5 °C.

For `N#Cc1ccc(N)cc1`, the melting point was 84 °C.

For `Clc1cc(Cl)c2c(c1Cl)Oc1ccccc1O2`, the log10 Henry constant (atm·m³/mol) was -4.44, the log10 Koa was 8.97 and the log10 vapour pressure (mmHg) was -6.12. For the same molecule, the melting point was 128 °C, the log10 BCF was 2.75 and the log10 biotransformation half-life (days) was 0.43.

Molecule `C=C(C)C1CCC(C)(O)CC1` (centres undefined) has a boiling point of 210 °C and a melting point of 32.5 °C.

In the case of `NCCCCCCCCN`, the boiling point is reported as 225 °C, the melting point is reported as 52 °C and the ready biodegradability is reported as “readily biodegradable”.

For `C=C(C)CNc1ccc(C(C)C(=O)O)cc1` (centres undefined), the melting point was 107 °C.

Work on `O=c1[nH]cnc2c1ncn2[C@H]1CC[C@@H](CO)O1` yielded a melting point of 162 °C.

For `C=C[C@H]1C[N@@]2CC[C@H]1C[C@H]2[C@H](O)c1ccnc2ccc(O)cc12`, the melting point was 202 °C.

Molecule `OCCOc1ccc2ccccc2c1` has a melting point of 76.7 °C.

`Cc1ccc2cc3c(ccc4ccccc43)cc2c1` gave a melting point of 152 °C.

Molecule `CCc1cnccc1C` has a boiling point of 198 °C.

Work on `COc1cccc(Cl)c1Cl` yielded a melting point of 32 °C.

In the case of `CN(c1ccccc1)c1ccccc1`, the boiling point is reported as 294 °C, the log10 vapour pressure (mmHg) is reported as -2.51 and the melting point is reported as -7.5 °C.

Work on `CCCCC(CC)COP(=O)(Oc1ccccc1)Oc1ccccc1` (centres undefined) yielded a boiling point of 375 °C, a log10 Henry constant (atm·m³/mol) of -4.27 and a log10 vapour pressure (mmHg) of -4.3. For the same molecule, the melting point was -54 °C, the ready biodegradability was “not readily biodegradable” and the log10 BCF was 2.49. The log10 biotransformation half-life (days) was -0.15.

Molecule `C[C@H]1CC(=O)C[C@@H]2CC[C@H]3[C@@H]4CC[C@H](O)[C@@]4(C)CC[C@@H]3[C@]21C` has a melting point of 204 °C.

`CC=CC=CC=CC=O` gave a melting point of 56.8 °C.

In the case of `CC(C)CC(C)Nc1ccc(Nc2ccccc2)cc1` (centres undefined), the ready biodegradability is reported as “not readily biodegradable”.

`CCc1ccc(Cc2ccccc2)cc1` gave a boiling point of 297 °C and a melting point of -24 °C.

Molecule `CCNc1ccc([N+](=O)[O-])cc1` has a melting point of 97 °C.

Work on `O=C1C=CC(=O)N1c1ccccc1` yielded a melting point of 90.5 °C.

In the case of `CCCCCCCC=O`, the boiling point is reported as 171 °C, the log10 Henry constant (atm·m³/mol) is reported as -3.29 and the log10 Koa is reported as 5.36. It also gave a log10 vapour pressure (mmHg) of 0.0719 and a melting point of -23 °C.

With `O=C1c2ccccc2-c2ccc(O)cc21` the melting point was 205 °C.

In the case of `CC1CC(=O)CC(C)(C)C1` (centres undefined), the boiling point is reported as 189 °C and the ready biodegradability is reported as “not readily biodegradable”.

`CCOC(=O)c1ccccc1C(=O)OCC` gave a boiling point of 295 °C, a log10 Koc (L/kg) of 1.84 and a log10 vapour pressure (mmHg) of -2.68. The melting point was -40.5 °C and the ready biodegradability was “not readily biodegradable”.

With `C=CCC(O)CC=C` the boiling point was 151 °C.

Molecule `CC(Br)CCCBr` (centres undefined) has a melting point of -34.4 °C.

Work on `Oc1ccc(Br)cc1Cl` yielded a boiling point of 234 °C and a melting point of 50.5 °C.

Work on `CC(C)CN` yielded a boiling point of 68.5 °C, a log10 vapour pressure (mmHg) of 2.14 and a melting point of -85 °C. For the same molecule, the ready biodegradability was “readily biodegradable”.

Work on `O=C(O)CONC(=O)c1ccccc1` yielded a melting point of 140 °C.

Molecule `CCOC(=O)CC(=O)CC` has a boiling point of 191 °C.

`C[N+]1([O-])[C@@H]2C[C@@H](OC(=O)[C@H](CO)c3ccccc3)C[C@H]1[C@@H]1O[C@@H]12` (some centres undefined) gave a melting point of 80 °C.

For `CCCCCCCCCCCC(=O)OC(C)C`, the log10 vapour pressure (mmHg) was -2.57.

Work on `O=C(O)c1c(Br)c(O)c(O)c(O)c1Br` yielded a melting point of 150 °C.

`O=C(Nc1ccc([N+](=O)[O-])cc1Cl)c1cc(Cl)ccc1O` showed a log10 Koc (L/kg) of 3.35, a log10 vapour pressure (mmHg) of -10.8 and a melting point of 230 °C. For the same molecule, the ready biodegradability was “not readily biodegradable”.

`Nc1c(F)c(F)c(C(F)(F)F)c(F)c1F` showed a boiling point of 186 °C.

`CCC(C)COC(C)=O` (centres undefined) gave a boiling point of 140 °C.

Work on `Cc1cc(C)c(C)c(O)c1` yielded a boiling point of 230 °C, a log10 Koc (L/kg) of 3.61 and a log10 vapour pressure (mmHg) of -2.42. The melting point was 93.5 °C.

In the case of `ClCCOC(c1ccccc1)c1ccccc1`, the ready biodegradability is reported as “not readily biodegradable”, the log10 BCF is reported as 2.51 and the log10 biotransformation half-life (days) is reported as -0.07.

Work on `CCSC(=O)SCC` yielded a boiling point of 197 °C.

`Clc1cccc(-c2ccccc2)c1Cl` showed a log10 Henry constant (atm·m³/mol) of -3.64, a log10 BCF of 3.98 and a log10 biotransformation half-life (days) of 2.15.

For `Cc1ccc(S(=O)(=O)Nc2ccccc2C)cc1`, the melting point was 110 °C.

Work on `Brc1c(Br)c(Br)c2c(c1Br)Oc1c(Br)c(Br)c(Br)c(Br)c1O2` yielded a log10 vapour pressure (mmHg) of -12.5 and a melting point of 376 °C.

Work on `O=C(OC1CCCCC1)c1ccccc1` yielded a boiling point of 285 °C.

From the OPERA property sets (Mansouri et al. 2018)
